In assay [1] the target is T1, Dual specificity tyrosine-phosphorylation-regulated kinase 2 (Homo sapiens) (UniProt Q92630).
T1 sequence (whole entry): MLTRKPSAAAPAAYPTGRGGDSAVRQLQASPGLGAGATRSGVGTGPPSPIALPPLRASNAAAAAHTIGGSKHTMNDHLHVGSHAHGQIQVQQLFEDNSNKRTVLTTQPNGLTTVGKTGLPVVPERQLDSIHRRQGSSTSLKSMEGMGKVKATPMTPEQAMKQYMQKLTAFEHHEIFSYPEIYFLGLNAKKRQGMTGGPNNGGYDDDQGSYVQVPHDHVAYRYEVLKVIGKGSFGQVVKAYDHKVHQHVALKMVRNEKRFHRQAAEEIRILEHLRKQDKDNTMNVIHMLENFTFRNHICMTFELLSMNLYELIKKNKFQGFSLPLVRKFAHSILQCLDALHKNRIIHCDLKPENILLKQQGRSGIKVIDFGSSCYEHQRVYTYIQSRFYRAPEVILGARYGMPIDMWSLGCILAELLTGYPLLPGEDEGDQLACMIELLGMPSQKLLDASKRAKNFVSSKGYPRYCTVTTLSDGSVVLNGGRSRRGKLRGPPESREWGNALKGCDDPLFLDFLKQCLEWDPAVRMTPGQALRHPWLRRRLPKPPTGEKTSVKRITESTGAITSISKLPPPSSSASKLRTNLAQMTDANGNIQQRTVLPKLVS
The experiment in a line: DYRK2 SGC Tm panel (DSF). The following applies: for ΔTm: Compound concentration 10.0 uM.

Assay [2] has as its target T2, Serine/threonine-protein kinase haspin (Homo sapiens) (UniProt Q8TF76).
T2 sequence (whole entry): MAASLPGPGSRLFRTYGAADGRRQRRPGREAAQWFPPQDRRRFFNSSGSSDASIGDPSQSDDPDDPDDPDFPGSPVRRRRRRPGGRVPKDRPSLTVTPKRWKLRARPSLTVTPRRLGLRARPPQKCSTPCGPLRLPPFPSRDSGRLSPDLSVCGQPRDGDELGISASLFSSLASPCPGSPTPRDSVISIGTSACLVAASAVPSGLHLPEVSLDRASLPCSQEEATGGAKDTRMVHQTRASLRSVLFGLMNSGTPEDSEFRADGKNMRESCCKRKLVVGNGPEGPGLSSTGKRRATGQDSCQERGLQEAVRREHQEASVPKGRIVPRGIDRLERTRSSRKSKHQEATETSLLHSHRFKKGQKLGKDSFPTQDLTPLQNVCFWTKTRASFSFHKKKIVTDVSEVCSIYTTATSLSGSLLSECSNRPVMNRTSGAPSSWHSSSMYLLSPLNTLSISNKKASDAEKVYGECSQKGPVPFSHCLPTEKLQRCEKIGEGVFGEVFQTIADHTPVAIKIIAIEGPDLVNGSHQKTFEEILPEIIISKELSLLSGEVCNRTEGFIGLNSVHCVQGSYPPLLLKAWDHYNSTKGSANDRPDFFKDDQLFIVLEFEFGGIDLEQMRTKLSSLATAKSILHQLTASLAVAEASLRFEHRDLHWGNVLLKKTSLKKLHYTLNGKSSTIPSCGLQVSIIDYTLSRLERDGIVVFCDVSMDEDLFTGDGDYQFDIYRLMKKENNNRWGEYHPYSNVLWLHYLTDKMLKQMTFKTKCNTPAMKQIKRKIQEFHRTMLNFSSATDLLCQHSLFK
Kind of assay: GSG2 SGC Tm panel (DSF). Particulars: for ΔTm: Compound concentration 10.0 uM.

Assay [3] addresses T3, 5-hydroxytryptamine receptor 1A (Homo sapiens) (UniProt P08908).
T3 sequence (whole entry): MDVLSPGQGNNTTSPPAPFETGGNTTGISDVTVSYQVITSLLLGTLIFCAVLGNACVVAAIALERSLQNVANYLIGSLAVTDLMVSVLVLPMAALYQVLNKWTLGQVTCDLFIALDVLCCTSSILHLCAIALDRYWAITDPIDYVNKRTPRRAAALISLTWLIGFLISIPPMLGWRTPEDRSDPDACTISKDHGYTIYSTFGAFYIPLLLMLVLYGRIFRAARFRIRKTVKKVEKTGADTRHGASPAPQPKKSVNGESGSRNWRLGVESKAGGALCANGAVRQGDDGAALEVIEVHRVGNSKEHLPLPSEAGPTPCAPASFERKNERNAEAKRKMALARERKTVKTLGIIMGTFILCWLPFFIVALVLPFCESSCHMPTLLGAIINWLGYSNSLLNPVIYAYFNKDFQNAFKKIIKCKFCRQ
Particulars: Compound concentration 10.0 uM.

In assay [4] the target is Casein kinase I isoform epsilon (Homo sapiens) (UniProt P49674). The experiment in a line: CSNK1E SGC Tm panel (DSF). Particulars: for ΔTm: Compound concentration 10.0 uM.
Sequence of Casein kinase I isoform epsilon (Homo sapiens) (P49674 whole entry, looked up, canonical isoform): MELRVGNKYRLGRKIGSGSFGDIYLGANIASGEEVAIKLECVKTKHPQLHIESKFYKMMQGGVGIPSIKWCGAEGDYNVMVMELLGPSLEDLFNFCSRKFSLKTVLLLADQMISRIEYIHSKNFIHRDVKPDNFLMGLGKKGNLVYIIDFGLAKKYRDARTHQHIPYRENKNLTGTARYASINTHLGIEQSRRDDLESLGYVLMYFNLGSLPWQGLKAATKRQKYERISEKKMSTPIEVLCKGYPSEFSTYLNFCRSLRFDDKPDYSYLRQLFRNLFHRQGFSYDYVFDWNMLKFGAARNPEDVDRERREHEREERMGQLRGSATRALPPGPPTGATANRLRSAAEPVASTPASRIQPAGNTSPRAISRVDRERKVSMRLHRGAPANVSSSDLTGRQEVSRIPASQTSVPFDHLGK
The target in assay [5] is D(1A) dopamine receptor (Homo sapiens) (UniProt P21728). Particulars: Compound concentration 10.0 uM.
Sequence of D(1A) dopamine receptor (Homo sapiens) (P21728 whole entry, canonical isoform): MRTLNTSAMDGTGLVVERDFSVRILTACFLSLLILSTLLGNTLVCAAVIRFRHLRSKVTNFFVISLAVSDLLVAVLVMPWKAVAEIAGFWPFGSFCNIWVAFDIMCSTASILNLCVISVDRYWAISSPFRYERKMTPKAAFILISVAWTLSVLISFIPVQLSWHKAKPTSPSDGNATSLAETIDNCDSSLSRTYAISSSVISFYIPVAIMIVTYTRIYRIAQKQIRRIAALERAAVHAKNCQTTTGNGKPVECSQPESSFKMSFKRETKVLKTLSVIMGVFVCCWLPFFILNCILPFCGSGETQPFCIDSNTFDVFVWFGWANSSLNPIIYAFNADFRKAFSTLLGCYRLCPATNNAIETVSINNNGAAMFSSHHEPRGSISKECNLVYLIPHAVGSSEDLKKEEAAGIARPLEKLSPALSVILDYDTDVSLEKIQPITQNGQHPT
The target of assay [6] is Casein kinase I isoform delta (Homo sapiens) (UniProt P48730). The experiment in a line: CSNK1D SGC Tm panel (DSF). The following applies: for ΔTm: Compound concentration 10.0 uM.
Sequence of Casein kinase I isoform delta (Homo sapiens) (P48730 whole entry, looked up, canonical isoform): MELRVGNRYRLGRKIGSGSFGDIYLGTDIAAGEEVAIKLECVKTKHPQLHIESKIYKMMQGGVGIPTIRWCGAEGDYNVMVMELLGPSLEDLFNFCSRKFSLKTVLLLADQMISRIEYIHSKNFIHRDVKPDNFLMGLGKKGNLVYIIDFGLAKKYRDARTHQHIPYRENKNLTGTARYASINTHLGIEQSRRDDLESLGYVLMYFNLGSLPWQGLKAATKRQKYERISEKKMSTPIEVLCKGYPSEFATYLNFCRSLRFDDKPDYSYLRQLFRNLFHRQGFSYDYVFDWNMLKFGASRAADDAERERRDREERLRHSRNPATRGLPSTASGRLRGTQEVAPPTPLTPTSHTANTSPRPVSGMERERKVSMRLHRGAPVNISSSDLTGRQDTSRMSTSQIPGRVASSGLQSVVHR

Results on two molecules are retold here after ChEMBL document CHEMBL5303765, “Data for DCP probe BAY-7081” (2023).

One may read the inhibition as the drop in the measured response relative to a control, in per cent. As for `CCC[C@@H]1CNCc2c1[nH]c(=O)c(C#N)c2N1CCC2(CC1)CC2`, the delta Tm Staurosporine positive control stood at 5.55 in assay [1], 8.53 in assay [2], 3.12 in assay [4] and 2.05 in assay [6]. For the same molecule, the ΔTm in assay [1] was -0.189; in assay [2], -0.64; in assay [4], -0.0146; in assay [6], 0.052. The inhibition is 8.63% in assay [3] and 11% in assay [5].
In the case of `CCC[C@H]1CNCc2c1[nH]c(=O)c(C#N)c2N1CCC2(CC1)CC2`, the delta Tm Staurosporine positive control in assay [1] is 5.55; in assay [2], 8.53; in assay [4], 3.12; in assay [6], 2.05. The ΔTm in assay [1] is -0.198; in assay [2] it was -0.0501; in assay [4], -0.118; in assay [6] it was -0.142. Also, the values for the inhibition in assay [3] and in assay [5] were 5.13% and -2.37%, respectively.
